This is an account of results in patent publication US20050158277A1 (priority 2001, published 2005).

For this data set, the system named is S. typhimurium. The data set is classed as cell-based. The settings on record: up to 50 mM, 30 min exposure. The procedure: FIGS. 17 (a-c) Curve of toxicity of benzyl alcohol. Effect of 30 min exposure to increasing concentration (5 to 80 mM) benzyl alcohol (BA) on the growth of S. typhimurium.

Regarding `OCc1ccccc1` [BA, benzyl alcohol], the “toxic effect on the growth of Salmonella” value is recorded as “no toxic effect”.
